This assay has as its target human NaV subtype, like NaV 1.7 (Homo sapiens, UniProt Q15858). The assay can be described thus: E-VIPR optical membrane potential assay with electrical stimulation. In kind it is cell-based. As to conditions: active against one or more sodium channels; Table 3 does not name the assay or NaV subtype; read-out: Binned Activity Data (IC50).
Chain of human NaV subtype, like NaV 1.7 (Q15858 whole entry): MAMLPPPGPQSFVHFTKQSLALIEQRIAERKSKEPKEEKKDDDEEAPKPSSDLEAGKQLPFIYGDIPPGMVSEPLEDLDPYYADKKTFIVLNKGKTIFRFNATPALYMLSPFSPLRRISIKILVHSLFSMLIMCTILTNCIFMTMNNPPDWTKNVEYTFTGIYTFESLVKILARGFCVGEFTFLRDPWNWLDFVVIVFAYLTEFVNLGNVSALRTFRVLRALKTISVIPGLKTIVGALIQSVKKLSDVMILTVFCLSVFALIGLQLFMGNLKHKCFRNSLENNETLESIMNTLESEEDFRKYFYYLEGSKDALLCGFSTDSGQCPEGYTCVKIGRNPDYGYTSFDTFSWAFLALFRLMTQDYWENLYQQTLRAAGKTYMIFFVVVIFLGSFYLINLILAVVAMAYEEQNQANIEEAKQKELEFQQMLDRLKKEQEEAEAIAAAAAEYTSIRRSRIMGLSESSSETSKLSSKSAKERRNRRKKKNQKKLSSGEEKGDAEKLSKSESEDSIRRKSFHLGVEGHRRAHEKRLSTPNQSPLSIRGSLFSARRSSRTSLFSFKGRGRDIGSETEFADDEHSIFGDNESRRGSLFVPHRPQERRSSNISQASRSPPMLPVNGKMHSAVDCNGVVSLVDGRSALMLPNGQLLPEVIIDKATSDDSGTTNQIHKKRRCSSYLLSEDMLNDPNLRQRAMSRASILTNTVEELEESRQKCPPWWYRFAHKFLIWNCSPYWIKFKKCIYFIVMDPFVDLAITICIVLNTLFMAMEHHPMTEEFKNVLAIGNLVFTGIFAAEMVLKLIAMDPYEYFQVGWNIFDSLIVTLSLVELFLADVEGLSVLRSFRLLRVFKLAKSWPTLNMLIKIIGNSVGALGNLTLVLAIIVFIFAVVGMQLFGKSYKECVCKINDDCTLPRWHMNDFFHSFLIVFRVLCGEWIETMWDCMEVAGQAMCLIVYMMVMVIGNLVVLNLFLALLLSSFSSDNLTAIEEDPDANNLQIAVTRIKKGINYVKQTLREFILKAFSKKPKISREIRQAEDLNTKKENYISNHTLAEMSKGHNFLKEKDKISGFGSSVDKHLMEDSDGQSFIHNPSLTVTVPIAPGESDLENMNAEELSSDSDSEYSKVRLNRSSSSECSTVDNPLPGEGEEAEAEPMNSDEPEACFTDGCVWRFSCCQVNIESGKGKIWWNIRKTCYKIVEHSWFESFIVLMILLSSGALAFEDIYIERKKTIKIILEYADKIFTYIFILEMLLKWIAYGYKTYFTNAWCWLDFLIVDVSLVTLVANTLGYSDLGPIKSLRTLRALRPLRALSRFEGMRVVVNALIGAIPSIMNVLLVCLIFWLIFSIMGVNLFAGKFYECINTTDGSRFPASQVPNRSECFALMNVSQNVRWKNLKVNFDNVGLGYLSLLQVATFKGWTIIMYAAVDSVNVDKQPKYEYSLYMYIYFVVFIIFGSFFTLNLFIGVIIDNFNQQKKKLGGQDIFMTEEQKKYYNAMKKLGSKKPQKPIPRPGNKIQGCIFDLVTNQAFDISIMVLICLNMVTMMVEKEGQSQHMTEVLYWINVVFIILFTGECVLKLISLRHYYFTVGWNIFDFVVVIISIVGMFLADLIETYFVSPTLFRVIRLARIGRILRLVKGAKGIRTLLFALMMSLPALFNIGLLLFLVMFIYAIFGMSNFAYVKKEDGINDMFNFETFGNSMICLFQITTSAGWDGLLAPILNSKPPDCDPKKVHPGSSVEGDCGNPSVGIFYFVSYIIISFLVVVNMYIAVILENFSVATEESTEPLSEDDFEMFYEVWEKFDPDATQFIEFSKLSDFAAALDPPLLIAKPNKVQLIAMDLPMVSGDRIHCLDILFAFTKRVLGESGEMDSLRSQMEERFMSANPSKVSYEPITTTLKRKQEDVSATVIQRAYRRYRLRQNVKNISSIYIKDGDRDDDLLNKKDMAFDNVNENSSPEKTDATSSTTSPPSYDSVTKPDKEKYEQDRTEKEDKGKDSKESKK
Take `CN1CCn2c(C(F)(F)F)cc(F)c2C12CCN(C(=O)c1ccc(S(=O)(=O)C(F)F)cc1)CC2` [Compound 23]: the IC50 was ≤ 2000 nM.
As to `CN1CCn2c(C(=O)C(F)(F)F)ccc2C12CCN(C(=O)c1ccc(S(=O)(=O)C3CC3)cc1)CC2` [Compound 496], the IC50 is 2000 to 5000 nM.
In the case of `COc1cc(C(=O)N2CCC3(CC2)c2ccc(Cl)n2CCN3C)ccc1OCC(C)C` [Compound 82] it was ≤ 2000 nM; in that of `COc1cc(C(=O)N2CCC3(CC2)NC(C)(C)Cn2c(C(=O)C(F)(F)F)ccc23)ccc1COCC(F)(F)F` [Compound 467], ≤ 2000 nM; in that of `CC(C)S(=O)(=O)c1ccc(C(=O)N2CCC3(CC2)c2ccc(C(=O)C(C)(C)C)n2CCN3C)cc1` [Compound 176], 2000 to 5000 nM.
In the case of `COc1cc(C(=O)N2CCC3(CC2)c2c(F)cc(C(F)(F)F)n2CCN3C)ccc1OCC(C)C` [Compound 188] it was ≤ 2000 nM.
For `COc1cc(C(=O)N2CCC3(CC2)NCCn2c(C(F)(F)F)ccc23)ccc1C(C)(C)O` [Compound 83], the IC50 was ≤ 2000 nM.
In the case of `Cc1cc(C(=O)N2CCC3(CC2)c2ccc(C(F)(F)F)n2CCN3C)ccc1OCC(C)(C)O` [Compound 263] it was ≤ 2000 nM; in that of `CCCCCc1ccc(C(=O)N2CCC3(CC2)c2ccc(C(C)=O)n2CCN3C)cc1` [Compound 92], ≤ 2000 nM.
As to `CN1CCn2c(Cl)ccc2C12CCN(C(=O)c1ccc(OCC(C)(C)C)cc1)CC2` [Compound 32], the IC50 is ≤ 2000 nM.
In the case of `Cc1cc(C(=O)N2CCC3(CC2)c2ccc(C(=O)C(F)(F)F)n2CCN3C)cnc1OC(C)C` [Compound 291] it was ≤ 2000 nM; in that of `CC(C)(O)c1ccc(C(=O)N2CCC3(CC2)c2ccc(C(F)(F)F)n2CCN3CC(F)F)cc1` [Compound 354], ≤ 2000 nM; in that of `Cc1cc(C(=O)N2CCC3(CC2)c2ccc(C(F)(F)F)n2CCN3C)ccc1S(C)(=O)=O` [Compound 515], > 5000 nM.
In the case of `CC(C)Oc1ccc(C(=O)N2CC[C@]3(c4ccc(C(F)(F)F)n4CCN3C)[C@H](F)C2)cc1CO` [Compound 202] it was 2000 to 5000 nM; in that of `CC[C@H](C)Oc1ccc(C(=O)N2CCC3(CC2)c2ccc(Cl)n2CCN3C)cc1OC` [Compound 38], 2000 to 5000 nM; in that of `CN1CCn2c(C(F)(F)F)ccc2C12CCN(C(=O)c1cccc(Cl)c1)CC2` [Compound 166], > 5000 nM.
As to `COc1ccc(C(=O)N2CCC3(CC2)NC(C)(C)Cn2c(C(=O)C(F)(F)F)ccc23)cc1Cl` [Compound 129], the IC50 is ≤ 2000 nM.
For the compound `CCCc1ccc(C(=O)N2CCC3(CC2)c2ccc(C(=O)C(F)(F)F)n2CCN3C)cc1` [Compound 87], the IC50 is ≤ 2000 nM.
In the case of `CC(=O)c1ccc2n1CCN(C)C21CCN(C(=O)c2ccc(OC(C)C)c(C)n2)CC1` [Compound 691] it was ≤ 2000 nM; in that of `COc1ncc(F)cc1C(=O)N1CCC2(CC1)c1ccc(C(F)(F)F)n1CCN2C` [Compound 605], > 5000 nM; in that of `Cc1nc(C(=O)N2CCC3(CC2)NCC(C)n2c(C(=O)C(F)(F)F)ccc23)ccc1OC(C)C` (stereo not shown) [Compound 198], ≤ 2000 nM.
Regarding `CN1CCn2c(C(=O)C(F)(F)F)ccc2C12CCN(C(=O)c1ccc(-c3ccccc3F)cn1)CC2` [Compound 725], the IC50 was > 5000 nM.
In the case of `COc1ccc(C(=O)N2CCC3(CC2)NC(C)(C)Cn2c(C(=O)C(F)(F)F)ccc23)c(F)c1` [Compound 312] it was ≤ 2000 nM; in that of `CC[C@@H](C)Oc1ccc(C(=O)N2CCC3(CC2)c2ccc(C(F)(F)F)n2CCN3C)cc1OC` [Compound 727], ≤ 2000 nM; in that of `CCCOc1ccc(C(=O)N2CCC3(CC2)c2ccc(C(C)=O)n2CCN3C)cc1OC` [Compound 586], 2000 to 5000 nM.
As to `CC(C)Oc1ccc(C(=O)N2CCC3(CC2)c2c(F)cc(C(F)(F)F)n2CCN3C)cc1F` [Compound 436], the IC50 was ≤ 2000 nM.
In the case of `Cc1cc(C(=O)N2CCC3(CC2)c2ccc(C(=O)C(F)(F)F)n2CCN3C)ccc1C1(O)CCCC1` [Compound 487] it was ≤ 2000 nM; in that of `Cc1cc(C(=O)N2CCC3(CC2)c2ccc(C(=O)C(F)(F)F)n2CCN3C)ccc1-c1cnc(N(C)C)nc1` [Compound 621], ≤ 2000 nM; in that of `COc1cccc(C(=O)N2CCC3(CC2)c2ccc(C(F)(F)F)n2CCN3C)c1` [Compound 42], > 5000 nM.
In the case of `CC(=O)c1ccc2n1CCN(C)C21CCN(C(=O)c2ccc(OCC3CC3)cc2)CC1` [Compound 388] it was > 5000 nM; in that of `CC(C)C(=O)c1ccc2n1CCN(C)C21CCN(C(=O)c2ccc(C(C)(C)O)c(F)c2)CC1` [Compound 183], ≤ 2000 nM; in that of `Cc1cc(C(=O)N2CCC3(CC2)c2ccc(C(=O)C(C)(C)C)n2CCN3C)ccc1OC(C)C` [Compound 199], ≤ 2000 nM.
With `COc1cc(C(=O)N2CCC3(CC2)c2ccc(Cl)n2CCN3C)ccc1C(C)(C)C` [Compound 209], the IC50 was ≤ 2000 nM.
Regarding `CC(=O)c1ccc2n1CCN(C)C21CCN(C(=O)c2ccc(S(=O)(=O)C(F)F)cc2)CC1` [Compound 268], the IC50 was > 5000 nM.
Consider `CC(C)C(O)c1ccc(C(=O)N2CCC3(CC2)c2c(F)cc(C(F)(F)F)n2CCN3C)cc1` (stereo not shown) [Compound 395], for which the IC50 was ≤ 2000 nM.
In the case of `Cc1cc(C(=O)N2CCC3(CC2)N[C@@H](C)Cn2c(C(F)(F)F)ccc23)ccc1OC(C)C` [Compound 495] it was ≤ 2000 nM; in that of `CC(C)Oc1ccc(C(=O)N2CCC3(CC2)NC(C)(C)Cn2c(C(F)(F)F)ccc23)cc1F` [Compound 655], ≤ 2000 nM.
In the case of `Cc1cc(C(=O)N2CCC3(CC2)c2ccc(C(F)(F)C(F)(F)F)n2CCN3C)ccc1S(=O)(=O)C(C)C` [Compound 326] it was ≤ 2000 nM.
In the case of `CC(C)S(=O)(=O)c1ccc(C(=O)N2CCC3(CC2)NC(C)(C)Cn2c(C(=O)C(F)(F)F)ccc23)cc1` [Compound 557] it was ≤ 2000 nM.
For the compound `CN1CCn2c(Cl)ccc2C12CCN(C(=O)c1ccc(OCc3ccccc3)cc1)CC2` [Compound 68], the IC50 fell in the range of 2000 to 5000 nM.
In the case of `CN1CCn2c(C(=O)C3(C)CC3)ccc2C12CCN(C(=O)c1ccc(S(=O)(=O)C(F)(F)F)cc1)CC2` [Compound 644] it was ≤ 2000 nM; in that of `CCC(=O)N1CCn2c(C(F)(F)F)ccc2C12CCN(C(=O)c1ccc(OC(C)C)c(OC)c1)CC2` [Compound 428], ≤ 2000 nM.
With `CN1CCn2c(C(=O)C(C)(C)C)ccc2C12CCN(C(=O)c1ccc(O)c(Cl)c1)CC2` [Compound 641], the half-maximal inhibitory concentration (IC50) was ≤ 2000 nM.
Regarding `Cc1cc(C(F)F)n2ncc(C(=O)N3CCC4(CC3)NCCn3c(C(F)(F)F)ccc34)c2n1` [Compound 159], the IC50 was in the range of 2000 to 5000 nM.
In the case of `COc1cc(C(=O)N2CCC3(CC2)c2ccc(C(F)(F)F)n2CCN3C)ccc1O` [Compound 407] it was 2000 to 5000 nM.
In the case of `COc1cc(C(=O)N2CC[C@]3(C[C@H]2C)c2ccc(C(F)(F)F)n2CCN3C)ccc1OC(C)C` [Compound 328] it was > 5000 nM.
In the case of `COc1ccc(C(=O)N2CCC3(CC2)c2ccc(C(=O)C(F)(F)F)n2C[C@H](C)N3C)nc1C` [Compound 485] it was ≤ 2000 nM.
In the case of `CC(C)Oc1ccc(C(=O)N2CCC3(CC2)NCC(C)(C)n2c(C(F)(F)F)ccc23)cc1Cl` [Compound 77], the IC50 is ≤ 2000 nM.
As to `COc1cc(C(=O)N2CC[C@@]3(c4ccc(C(F)(F)F)n4CCN3C)[C@@H](C)C2)ccc1OC(C)C` [Compound 429], the IC50 lay within 2000 to 5000 nM.
For `CC(C)CNc1ncccc1C(=O)N1CCC2(CC1)c1ccc(C(F)(F)F)n1CCN2C` [Compound 44], the IC50 was 2000 to 5000 nM.
In the case of `CN1CCn2c(C(=O)C(F)(F)F)ccc2C12CCN(C(=O)c1ccc(-c3ccccc3)c(F)c1)CC2` [Compound 717], the IC50 was ≤ 2000 nM.
As for `COc1ccc(C(=O)N2CCC3(CC2)c2ccc(C(=O)C(F)(F)F)n2CCN3C)cc1-c1ccccc1` [Compound 130], the IC50 lay in the range of 2000 to 5000 nM.
In the case of `COc1ccc(C(=O)N2CCC3(CC2)NCCn2c(C(F)(F)F)ccc23)cc1` [Compound 497] it was > 5000 nM; in that of `CC1(C)Cn2c(C(=O)C(F)(F)F)ccc2C2(CCN(C(=O)c3ccc(-c4ccccc4)c(O)c3)CC2)N1` [Compound 218], > 5000 nM; in that of `O=C(c1ccccc1-c1ccccc1)N1CCC2(CC1)NCCn1c(C(F)(F)F)ccc12` [Compound 603], > 5000 nM.
For the compound `CCCc1ccc(C(=O)N2CCC3(CC2)c2ccc(Cl)n2CCN3C)cc1` [Compound 224], the IC50 is > 5000 nM.
Take `COc1cc(C(=O)N2CCC3(CC2)NCCn2c(C(F)(F)F)ccc23)ccc1OC(C)(C)C` [Compound 435]: the IC50 lay within 2000 to 5000 nM.
`CC(=O)c1ccc2n1CCN(C)C21CCN(C(=O)c2ccc(OC(C)C)c(C(F)(F)F)c2)CC1` [Compound 732]: the IC50 was ≤ 2000 nM.
In the case of `COc1cc(C(=O)N2CCC3(CC2)c2ccc(C(C)=O)n2CCN3C)ccc1OCC(C)C` [Compound 230], the IC50 was ≤ 2000 nM.
As for `CN1CCn2c(C(=O)C(F)(F)F)ccc2C12CCN(C(=O)c1ccc(COCC(F)(F)F)cc1)CC2` [Compound 553], the IC50 was ≤ 2000 nM.
For the compound `CN1CCn2c(C(=O)C(F)(F)F)ccc2C12CCN(C(=O)c1ccc(OCC(F)(F)F)cc1)CC2` [Compound 175], the IC50 is ≤ 2000 nM.
On to `CC(C)Cc1ccc(C(=O)N2CCC3(CC2)c2ccc(Cl)n2CCN3C)cc1` [Compound 73], for which the IC50 was 2000 to 5000 nM.
Turning to `CC(=O)c1ccc2n1CCN(C)C21CCN(C(=O)c2ccc(S(=O)(=O)C(C)C)c(C)c2)CC1` [Compound 246], the IC50 was > 5000 nM.
In the case of `CN1CCn2c(C(=O)C(F)(F)F)ccc2C12CCN(C(=O)c1ccc(-c3ccccc3)c(O)c1)CC2` [Compound 287] it was 2000 to 5000 nM; in that of `CC(=O)c1ccc2n1CCN(C)C21CCN(C(=O)c2ccc(OCC(C)(C)O)c(C)c2)CC1` [Compound 681], 2000 to 5000 nM; in that of `COc1cc(C(=O)N2CCC3(CC2)c2c(F)cc(C(F)(F)F)n2CCN3C)ccc1OCCO` [Compound 540], > 5000 nM.
In the case of `CN1CCn2c(C(F)(F)F)cc(Cl)c2C12CCN(C(=O)c1ccc(C3(O)CCC3)cc1)CC2` [Compound 228] it was ≤ 2000 nM.

In general, IC50 refers to the concentration at which inhibition is half-maximal.

For the origin of these results see patent US8916565B2, “Pyrrolopyrazine-spirocyclic piperidine amides as modulators of ion channels” (priority 2011, dated 2014).
